# Reference: ChEMBL document CHEMBL1136927, “Nonsteroidal selective androgen receptor modulators (SARMs): dissociating the anabolic and androgenic activities of the androgen receptor for therapeutic benefit” (J Med Chem, 2009)
# What was measured:
# [1] = Terminal half life in iv dosed rat; assay type: ADME, organism-based; conditions: in vivo, read-out: beta t1/2 (converted)
# [2] = Volume of distribution at steady state in iv dosed rat; assay type: ADME, organism-based; conditions: in vivo, read-out: Vdss
# Rattus norvegicus [3] = species: Rattus norvegicus; test: Myotropic activity in rat assessed as seminal vesicle weight by Hershberger assay relative to intact tissue; assay type: functional; conditions: for Emax: Rattus norvegicus, Seminal vesicle
# Rattus norvegicus [4] = species: Rattus norvegicus; test: Myotropic activity in rat assessed as levator ani muscle weight by Hershberger assay relative to intact tissue; assay type: functional
# [5] = Oral bioavailability in rat at 10 mg/kg; assay type: ADME, organism-based; conditions: in vivo
# [6] = Clearance in iv dosed rat; assay type: ADME, organism-based; conditions: in vivo
# Rattus norvegicus [7] = species: Rattus norvegicus; test: Myotropic activity in rat assessed as ventral prostate weight by Hershberger assay relative to intact tissue; assay type: functional, Prostate gland
# Rattus norvegicus [8] = test: Myoanabolic activity in castrated rat assessed as restored soleus muscle strength at 10 mg/kg; assay type: functional
# [9] = Oral bioavailability in dog; assay type: ADME, organism-based, Canis lupus familiaris; conditions: in vivo
# Rattus norvegicus [10] = test: Myotropic activity in rat assessed as ventral prostate weight at 3 mg/kg administered in 12 week atrophy followed by 8 weeks treatment schedule by Hershberger assay; assay type: functional, Prostate gland
# Rattus norvegicus [11] = test: Myoanabolic activity in castrated rat assessed as restored soleus muscle strength at 3 mg/kg; assay type: functional
# Rattus norvegicus [12] = species: Rattus norvegicus; test: Osteoanabolic effect in rat assessed as reduction in osteocalcin level relative to basal level; assay type: functional; design: scale not given: the % may be the effect or the level left
# Rattus norvegicus [13] = species: Rattus norvegicus; test: Suppression of hyphalamic-pituitary-gonadal axis in rat; assay type: functional
# Rattus norvegicus [14] = species: Rattus norvegicus; test: Myotropic activity in rat assessed as levator ani muscle weight at 10 mg/day by Hershberger assay relative to intact tissue; assay type: functional
# Rattus norvegicus [15] = test: Myotropic activity in rat assessed as ventral prostate weight at 10 mg/kg by Hershberger assay; assay type: functional; conditions: Prostate gland
# Rattus norvegicus [16] = test: Myotropic activity in rat assessed as ventral prostate weight by modified Hershberger assay at 10 mg/kg; assay type: functional; conditions: Prostate gland
# Rattus norvegicus [17] = test: Suppression of hyphalamic-pituitary-gonadal axis in rat assessed as reduction in follicle-stimulating hormone level at 30 mg/kg; assay type: functional
# Rattus norvegicus [18] = test: Myotropic activity in rat assessed as ventral prostate weight at 100 mg/kg by Hershberger assay; assay type: functional; conditions: Prostate gland
# Rattus norvegicus [19] = species: Rattus norvegicus; test: Myotropic activity in rat assessed as levator ani muscle weight at 3 mg/day by modified Hershberger assay relative to intact tissue; assay type: functional
# Rattus norvegicus [20] = test: Myotropic activity in rat assessed as ventral prostate weight by modified Hershberger assay at 3 mg/kg; assay type: functional; conditions: Prostate gland
# Rattus norvegicus [21] = test: Myotropic activity in rat assessed as ventral prostate weight at 30 mg/kg by Hershberger assay; assay type: functional; conditions: Prostate gland
# Rattus norvegicus [22] = species: Rattus norvegicus; test: Myotropic activity in intact rat assessed as reduction in ventral prostate weight by Hershberger assay; assay type: functional, Prostate gland; design: scale not given: the % may be the effect or the level left
# Rattus norvegicus [23] = test: Suppression of hyphalamic-pituitary-gonadal axis in rat at 3 mg/kg; assay type: functional
# Rattus norvegicus [24] = species: Rattus norvegicus; test: Restoration of lean body mass in intact rat; assay type: functional
# Androgen receptor = biological target: T1, Androgen receptor (Homo sapiens, UniProt P10275)
# T1 sequence (P10275 whole entry): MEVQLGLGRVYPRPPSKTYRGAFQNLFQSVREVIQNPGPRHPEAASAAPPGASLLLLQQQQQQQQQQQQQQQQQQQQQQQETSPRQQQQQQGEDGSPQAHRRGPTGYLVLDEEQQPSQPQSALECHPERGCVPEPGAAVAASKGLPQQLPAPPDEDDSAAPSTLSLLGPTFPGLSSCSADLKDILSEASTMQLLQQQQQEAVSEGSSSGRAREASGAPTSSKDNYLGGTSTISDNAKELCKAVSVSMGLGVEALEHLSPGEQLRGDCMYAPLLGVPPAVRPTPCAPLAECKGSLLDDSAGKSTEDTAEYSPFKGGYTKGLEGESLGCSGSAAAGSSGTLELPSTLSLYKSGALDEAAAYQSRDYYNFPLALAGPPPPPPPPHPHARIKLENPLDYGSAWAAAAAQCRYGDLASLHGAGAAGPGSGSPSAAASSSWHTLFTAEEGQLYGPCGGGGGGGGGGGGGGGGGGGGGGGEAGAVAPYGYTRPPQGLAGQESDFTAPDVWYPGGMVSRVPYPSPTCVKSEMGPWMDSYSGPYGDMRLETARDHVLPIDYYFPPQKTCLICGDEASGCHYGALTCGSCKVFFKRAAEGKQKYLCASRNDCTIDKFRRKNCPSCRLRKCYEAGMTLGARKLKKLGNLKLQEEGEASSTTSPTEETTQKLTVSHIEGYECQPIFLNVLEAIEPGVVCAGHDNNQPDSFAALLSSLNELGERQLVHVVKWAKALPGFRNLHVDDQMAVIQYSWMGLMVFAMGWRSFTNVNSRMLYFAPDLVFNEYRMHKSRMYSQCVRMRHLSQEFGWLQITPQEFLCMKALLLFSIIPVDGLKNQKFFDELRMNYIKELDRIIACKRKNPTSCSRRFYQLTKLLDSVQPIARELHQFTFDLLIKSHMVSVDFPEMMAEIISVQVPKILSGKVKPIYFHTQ
# Description: Agonist activity at androgen receptor
# Rattus norvegicus [25] = species: Rattus norvegicus; test: Myotropic activity in rat assessed as levator ani muscle weight at 30 mg/day by Hershberger assay relative to intact tissue; assay type: functional
# Rattus norvegicus [26] = species: Rattus norvegicus; test: Myotropic activity in rat assessed as ventral prostate weight at 0.3 mg/day by Hershberger assay; assay type: functional, Prostate gland
# Rattus norvegicus [27] = species: Rattus norvegicus; test: Reduction in testes weight in intact rat at 5 ug/day; assay type: functional, Testis; design: scale not given: the % may be the effect or the level left
# [28] = Half life in human; assay type: ADME, organism-based; conditions: in vivo
# [29] = Rattus norvegicus, Levator ani muscle
# [30] = Rattus norvegicus, Prostate gland
# [31] = Rattus norvegicus, Levator ani muscle, read-out: ED50
# [32] = Rattus norvegicus, Prostate gland, read-out: ED50
compound,measurement,setting,value
C[C@](O)(COc1ccc(F)cc1)C(=O)Nc1ccc([N+](=O)[O-])c(C(F)(F)F)c1,half-life,[1],3.6 h
same,Vd,[2],1.5 L/kg
same,ED50,Rattus norvegicus [3],0.38 mg/day
same,Emax,Rattus norvegicus [3],13.4%
same,ED50,Rattus norvegicus [4],0.44 mg/day
same,Emax,Rattus norvegicus [4]; [29],75%
same,bioavailability,[5],55%
same,clearance,[6],3.6 mL/min/kg
same,ED50,Rattus norvegicus [7],0.42 mg/day
same,Emax,Rattus norvegicus [7]; [30],14.9%
CC(=O)Nc1ccc(OC[C@](C)(O)C(=O)Nc2ccc([N+](=O)[O-])c(C(F)(F)F)c2)cc1,half-life,[1],2.6 h
same,Activity,Rattus norvegicus [8],156 kN/m2
same,bioavailability,[9],91%
same,Vd,[2],0.42 L/kg
same,ED50,Rattus norvegicus [3],0.55 mg/day
same,Emax,Rattus norvegicus [3],28.5%
same,Activity,Rattus norvegicus [10],20%
same,ED50,Rattus norvegicus [4],0.14 mg/day
same,Emax,Rattus norvegicus [4]; [29],101%
same,bioavailability,[5],100%
same,clearance,[6],1 mL/min/kg
same,ED50,Rattus norvegicus [7],0.43 mg/day
same,Emax,Rattus norvegicus [7]; [30],35.2%
same,Activity,Rattus norvegicus [11],120 kN/m2
same,Activity,Rattus norvegicus [12],70%
Cc1c(N2C(=O)[C@@H]3[C@H](O)CCN3C2=O)ccc(C#N)c1Cl,ED50,Rattus norvegicus [13],0.008 mg/kg
same,Emax,Rattus norvegicus [4]; [29],125%
same,ED50,Rattus norvegicus [4]; [31],0.009 mg/kg
same,Emax,Rattus norvegicus [7]; [30],105%
same,ED50,Rattus norvegicus [7]; [32],0.14 mg/kg
CC[C@H]1[C@@H]2[C@@H](O)CCN2C(=O)N1c1ccc(C#N)c(Cl)c1C,Emax,Rattus norvegicus [4]; [29],120%
same,ED50,Rattus norvegicus [4]; [31],0.09 mg/kg
same,Emax,Rattus norvegicus [7]; [30],65%
same,ED50,Rattus norvegicus [7]; [32],4.6 mg/kg
Cc1c(N2C(=O)[C@@H]3[C@H](O)CCN3S2(=O)=O)ccc(C#N)c1Cl,Emax,Rattus norvegicus [14],68%
same,Emax at 10 mg/kg,Rattus norvegicus [15],8%
C[C@@]1(C(=O)Nc2ccc(C#N)c(C(F)(F)F)c2)CC(C(F)(F)F)=NN1,Emax at 10 mg/kg,Rattus norvegicus [16],26%
same,Emax,Rattus norvegicus [14],100%
same,ED50,Rattus norvegicus [4]; [31],3.8 mg/kg
same,Emax at 30 mg/kg,Rattus norvegicus [17],40%
CC[C@@H]1COc2c(ccc3[nH]c(=O)cc(C(F)(F)F)c23)N1CC(F)(F)F,Emax at 100 mg/kg,Rattus norvegicus [18],80%
same,Emax,Rattus norvegicus [14],100%
same,ED50,Rattus norvegicus [4],70 mg/day
C[C@@]12CC(C(F)(F)F)=NN1[S+]([O-])N(c1ccc(C#N)c(C(F)(F)F)c1)C2=O (some centres not stated),Emax,Rattus norvegicus [19],117%
same,Emax at 3 mg/kg,Rattus norvegicus [20],58%
N#Cc1ccc(N2[C@@H]3CC[C@H]2C[C@@H](O)C3)c2ccccc12,ED50,Rattus norvegicus [13],2.8 mg/kg
same,Emax,Rattus norvegicus [13],117%
same,Emax,Rattus norvegicus [4]; [29],66%
same,ED50,Rattus norvegicus [4]; [31],17.3 mg/kg
same,Emax at 30 mg/kg,Rattus norvegicus [21],27%
C[C@]12CC(C(F)(F)F)=NN1C(N)=N/C2=N\c1ccc(C#N)c(C(F)(F)F)c1,Activity,Rattus norvegicus [22],26%
same,Emax,Rattus norvegicus [4]; [29],91%
same,ED50,Rattus norvegicus [4]; [31],2.8 mg/kg
same,Emax,Rattus norvegicus [7]; [30],31%
same,ED50,Rattus norvegicus [7]; [32],> 30 mg/kg
C[C@@]12CC(C(F)(F)F)=NN1C(=O)N(c1ccc(C#N)c(C(F)(F)F)c1)C2=O,Emax at 3 mg/kg,Rattus norvegicus [20],11%
same,ED50,Rattus norvegicus [4],2.9 mg/day
same,Emax,Rattus norvegicus [4]; [29],75%
O=c1cc(C(F)(F)F)c2cc(N(CC(F)(F)F)CC(F)(F)F)ccc2[nH]1,Emax at 100 mg/kg,Rattus norvegicus [18],100%
same,Emax at 3 mg/kg,Rattus norvegicus [23],100%
same,Emax,Rattus norvegicus [4]; [29],150%
C=C[C@@](O)(c1nc2cc(Cl)c(Cl)cc2[nH]1)C(F)(F)F,Activity,Rattus norvegicus [24],20%
same,Emax at 3 mg/kg,Rattus norvegicus [20],21%
same,Ki,Androgen receptor,1.1 nM
same,Activity,Rattus norvegicus [22],46%
same,Emax,Rattus norvegicus [4]; [29],101%
same,ED50,Rattus norvegicus [4]; [31],0.8 mg/kg
CN(C)C1CC(C(C)(C)CO)Nc2ccc([N+](=O)[O-])cc21 (configuration not stated),Emax,Rattus norvegicus [25],115%
same,Emax at 30 mg/kg,Rattus norvegicus [21],80%
C[C@](O)(COc1ccc(Cl)c(F)c1)C(=O)Nc1ccc(C#N)c(C(F)(F)F)c1,half-life,[1],11.9 h
same,Vd,[2],0.66 L/kg
same,ED50,Rattus norvegicus [3],0.41 mg/day
same,Emax,Rattus norvegicus [3],144%
same,Activity,Rattus norvegicus [26],79.4%
same,Emax,Rattus norvegicus [4]; [29],139%
same,bioavailability,[5],96%
same,clearance,[6],0.87 mL/min/kg
same,ED50,Rattus norvegicus [7],0.43 mg/day
same,Emax,Rattus norvegicus [7]; [30],138%
same,Activity,Rattus norvegicus [27],94%
C[C@](O)(CS(=O)(=O)c1ccc(F)cc1)C(=O)Nc1ccc(C#N)c(C(F)(F)F)c1 [(R)-BICALUTAMIDE],half-life,[28],140 h
CC(=O)Nc1ccc(SC[C@](C)(O)C(=O)Nc2ccc(C#N)c(C(F)(F)F)c2)cc1 [ACETOTHIOLUTAMIDE],Activity,Rattus norvegicus [3],50%
same,Activity,Rattus norvegicus [7],20%
C[C@@H]1CC[C@H]([C@@H](O)C(F)(F)F)N1c1ccc2[nH]c(=O)cc(C(F)(F)F)c2c1 [LGD-2941],Emax,Rattus norvegicus [14],180%
same,Emax at 10 mg/kg,Rattus norvegicus [15],100%
C[C@]12CCC(=O)C[C@@H]1CC[C@@H]1[C@@H]2CC[C@]2(C)[C@@H](O)CC[C@@H]12 [STANOLONE],Activity,Rattus norvegicus [10],200%
same,Activity,Rattus norvegicus [11],138 kN/m2
same,Activity,Rattus norvegicus [12],50%
CCC(=O)O[C@H]1CC[C@H]2[C@@H]3CCC4=CC(=O)CC[C@]4(C)[C@H]3CC[C@]12C [TESTOSTERONE PROPIONATE],ED50,Rattus norvegicus [3],0.12 mg/day
same,Emax,Rattus norvegicus [3],70%
same,Emax,Rattus norvegicus [4]; [29],104%
same,ED50,Rattus norvegicus [7],0.13 mg/day
same,Emax,Rattus norvegicus [7]; [30],120%
C[C@]12CC[C@H]3[C@@H](CCC4=CC(=O)CC[C@@]43C)[C@@H]1CC[C@@H]2O [TESTOSTERONE],ED50,Rattus norvegicus [4],0.15 mg/day
same,Emax,Rattus norvegicus [4]; [29],104%
same,ED50,Rattus norvegicus [7],0.13 mg/day
same,Emax,Rattus norvegicus [7]; [30],120%
